Reference: patent US20090092631A1, “GLYCOSYLATED SPECIFICITY EXCHANGERS THAT INDUCE AN ANTIBODY DEPENDENT CELLULAR CYTOTOXICITY (ADCC) RESPONSE” (priority 2007, published 2009)
Ends that are not written are not given here.

Key:
[1] = tested on: HIV-1 IIIB; test: Neutralization assay (plaque-forming units/syncytia) in U87 cells expressing CD4 and co-receptor; assay type: cell-based
Method: Once it had been determined that the glycosylated specificity exchangers appreciably bound gp120 and human antibody, the antiviral activity of the glycosylated specificity exchangers was evaluated using a neutralization assay that is recognized in the art to reasonably predict the therapeutic efficacy of an HIV vaccine. (See Y. Shi et al., “A new cell line-based neutralization assay for primary HIV type 1 isolates,” AIDS Res Hum Retroviruses 18:957-967 (2002), herein expressly incorporated by reference in its entirety). By this approach, HIV infection of U87 cells that express CD4 and one of the major co-receptors (either CXCR4 or CCR5) were challenged with the glycosylated specificity exchangers and human serum during competition with the CD4 receptor. The infected cells form syncytia, that is, plaques, that were stained and enumerated by light microscopy. Neutralization was then determined by the ability of human serum and glycosylated specificity exchanger to reduce the number of plaque-forming units (PFU) relative to controls.
In brief, the U87 cells were seeded onto a 48 well plate at a concentration of 100,000 cell/well 1 day prior infection with HIV-1 IIIB. On the day of infection, glycosylated specificity exchangers (Seq. ID. Nos. 4-9), human serum and virus stock were diluted in culture medium and incubated in a separate 48 well plate, to a final dilution of 1:10/1:20 for the serum and an appropriate concentration of the virus, according to the titration. The glycosylated specificity exchangers were analyzed at different concentrations to determine the minimal amount required for antiviral activity. The glycosylated specificity exchanger-serum-virus mixture was kept at 37° C. for 1 hr. Then, two hundred microliters of each dilution was distributed into wells containing the U87/CD4 cells. The experiment was performed in quadruplicate in the same plate and in five separate plates.
Controls for the assay included glycosylated specificity exchanger without the coupled sugar, the glycosylated specificity exchanger (coupled with the sugar) and a 1:10/1:20 dilution of heat inactivated human serum, cells and medium only, and cells and medium and serum. […]

[2] = tested on: HIV IIIB virus; test: Syncytia inhibition (plaque) assay on U87 CD4+-CXCR4+ cells; assay type: cell-based, HIV-1; conditions: for neutralization values (ranking): non-inactivated human sera (FIGS. 12H and 12I); for neutralization (comparison among glycopeptides): plaque assay U87, single round TZMbl and H9 infectivity assays, HIV IIIB, inactivated human serum
Method: The CD4 glycopeptides were studied for inhibition of cell to cell interactions in a plaque assay system using U87 cells (FIG. 7), in a single round infectivity assay with TZMbl cells (FIG. 7) and in an infectivity assay with H9 cells, wherein multiple rounds of replication were allowed (FIG. 8). Infectivity was performed with the HIV IIIB virus and inactivated human serum from healthy individuals was used as the source of the anti-gal antibody.
Neutralization was tested based on the prevention of syncytia formation by HIV-1 infection of adherent U87 glioma cells expressing the CD4 receptor and the CXCR4 co-receptor, previously described by Shi Y, et al., (2002) A new cell line-based neutralization assay for primary HIV type 1 isolates. AIDS Res Hum Retroviruses 18:957-967, herein expressly incorporated by reference in its entirety.
Cells were seeded into 48 well plates (Costar, Corning USA) at a concentration of 10^5 cell/well one day prior to infection. On the day of infection, glycopeptides, pooled AB type human serum from healthy individuals (Cambrex, USA) and previously titrated HIV IIIB virus were diluted in culture medium and pre-incubated in a separate 48 well plate for 1 h at 37° C. The peptides were analyzed at different concentrations to evaluate the minimum dose required for antiviral activity. Two hundred microliters of each dilution were distributed into triplicate wells containing the U87 CD4^+-CXCR4^+ cells and incubated for 12 h after which medium was removed and 1 ml of D-MEM medium was added to the cells. The positive controls were infected cells in the presence or absence of human serum and negative controls consisted of uninfected cells in the presence or absence of human serum and an irrelevant glycosylated peptide. At day five the cells were fixated with methanol-acetone (1:1). The number of plaque-forming units was determined after haematoxylin staining and the index was extracted from the ratio between infected cells treated with the peptides and human serum and cells infected with the virus in the presence of human serum. Each peptide was tested at four different concentrations, in quadruplicates in the same plate and in five different plates, i.e. each peptide was run in twenty wells at each concentration.

[3] = tested on: HIV IIIB virus; test: Multiple round infectivity assay in H9 cells (RT activity, day 11); assay type: cell-based, HIV-1; conditions: 1 μg/ml glycopeptide, 5 or 10% human serum
Method: An infectivity assay was performed on H9 cells that were infected with HIV IIIB virus. All peptides were run at four different dilutions and each dilution was run in quadruplicates together with a 10% or 5% of pooled AB human serum from healthy individuals. (Cambrex, USA).
H9 cells were infected with 100 TCID50 of the HIV IIIB virus and incubated for 1.5 h at 37° C. after which they were centrifuged, the supernatant was discarded and the cells were re-suspended in RPMI medium for a final concentration of 200,000 cells/ml.
One 48 well plate was run per glycopeptide, containing the four dilutions of the glycopeptide and the four replicates of each one of them, plus a positive control of infected cells (with and without human serum) and a negative control of non-infected H9 cells. Each well contained 500 μl of the infected cells +500 μl of the diluted peptide and the chosen dilution of the human serum.
Plates were incubated at 37° C.+5% CO2 until day 7 when 500 μl of supernatant were collected from each well and stored at −20 degrees until further analysis. An additional 500 μl of fresh RPMI medium with the appropriate dilution of the peptide plus the human serum were added to the wells and incubated at 37 degrees until day 11 when the supernatant was measured for Reverse Transcriptase (RT) activity (Cavidi, Sweden) according to the manufacturer's protocol.

[4] = CD4 peptide Alone (without coupled sugar), 0.1 ug/ml, 0.3 equals 30% inhibition
[5] = CD4 peptide Alone (without coupled sugar), 1 ug/ml, 0.3 equals 30% inhibition
[6] = CD4 peptide Alone (without coupled sugar), 10 ug/ml, 0.3 equals 30% inhibition of HIV replication (syncytia formation)
[7] = Glycosylated Sp. Exchanger & 1:10 dilution human serum, 0.1 ug/ml, 0.3 equals 30% inhibition
[8] = Glycosylated Sp. Exchanger & 1:10 dilution human serum, 1 ug/ml, 0.3 equals 30% inhibition
[9] = Glycosylated Sp. Exchanger & 1:10 dilution human serum, 10 ug/ml, 0.3 equals 30% inhibition
[10] = Glycosylated Sp. Exchanger & 1:20 dilution human serum, 0.1 ug/ml, 0.3 equals 30% inhibition
[11] = Glycosylated Sp. Exchanger & 1:20 dilution human serum, 1 ug/ml, 0.3 equals 30% inhibition
[12] = Glycosylated Sp. Exchanger & 1:20 dilution human serum, 10 ug/ml, 0.3 equals 30% inhibition
[13] = Glycosylated Sp. Exchanger, 0.1 ug/ml, 0.3 equals 30% inhibition
[14] = Glycosylated Sp. Exchanger, 1 ug/ml, 0.3 equals 30% inhibition
[15] = Glycosylated Sp. Exchanger, 10 ug/ml, 0.3 equals 30% inhibition

Row | Substance | neutralization of the virus [1, 4] | neutralization of the virus [1, 5] | neutralization of the virus [1, 6] | neutralization of the virus [1, 7] | neutralization of the virus [1, 8] | neutralization of the virus [1, 9] | neutralization of the virus [1, 10] | neutralization of the virus [1, 11] | neutralization of the virus [1, 12] | neutralization of the virus [1, 13] | neutralization of the virus [1, 14] | neutralization of the virus [1, 15] | neutralization of the virus ([1]; Glycosylated Sp. Exchanger & 1:10 dilution human serum, 100 ug/ml, 0.3 equals 30% inhibition) | neutralization of the virus ([1]; Glycosylated Sp. Exchanger & 1:20 dilution human serum, 100 ug/ml, 0.3 equals 30% inhibition) | neutralization of the virus ([1]; Glycosylated Sp. Exchanger, 100 ug/ml, 0.3 equals 30% inhibition) | neutralization values (ranking) [2] | neutralization (comparison among glycopeptides) [2] | neutralization [3] [%]
1 | 6 (KILGNQGSFLTKGPS; Homo sapien) [compound 6] | neg (Neg = negative <0.30) | neg (Neg = negative <0.30) | neg (Neg = negative <0.30) | 0.50 | 0.42 | 0.60 | neg (Neg = negative <0.30) | neg (Neg = negative <0.30) | neg (Neg = negative <0.30) | neg (Neg = negative <0.30) | – | – | – | – | – | – | – | –
2 | 7 (QGSFLTKGPSKLNDR; Homo sapien) [compound 7] | neg (Neg = negative <0.30) | neg (Neg = negative <0.30) | neg (Neg = negative <0.30) | 0.439 | 0.461 | 0.454 | neg (Neg = negative <0.30) | neg (Neg = negative <0.30) | neg (Neg = negative <0.30) | neg (Neg = negative <0.30) | neg (Neg = negative <0.30) | neg (Neg = negative <0.30) | – | – | – | – | – | –
3 | 9 (KLNDRADSRRSLWDQ; Homo sapien) [compound 9] | – | – | – | 0.76 | 0.75 | 0.78 | 0.71 | 0.75 | 0.74 | neg (Neg = negative <0.30) | neg (Neg = negative <0.30) | neg (Neg = negative <0.30) | 0.75 | 0.734 | neg (Neg = negative <0.30) | – | – | –
4 | 8 (TKGPSKLNDRADSRR; Homo sapien) [compound 8] | – | – | – | 0.778 | 0.821 | 0.83 | 0.701 | 0.667 | 0.642 | – | 0.548 | 0.552 | – | – | – | – | – | –
5 | QGSFLTKGPSKLNDR ({Gal‑α1‑3Gal‑β glyco‑aspartic acid}-QGSFLTKGPSKLNDR) [Seq. Id. No. 7, CD4 receptor peptide with Gal-α1-3Gal-β glyco-aspartic acid linked to its N-terminal end] | neg (Neg = negative <0.30) | neg (Neg = negative <0.30) | neg (Neg = negative <0.30) | 0.48 | 0.48 | 0.55 | 0.47 | 0.47 | 0.48 | neg (Neg = negative <0.30) | neg (Neg = negative <0.30) | neg (Neg = negative <0.30) | – | – | – | Highest neutralization values | greater neutralization | 90
6 | KILGNQGSFLTKGPS ({Gal‑α1‑3Gal‑β glyco‑aspartic acid}-KILGNQGSFLTKGPS) [Seq. Id. No. 6, CD4 receptor peptide with Gal-α1-3Gal-β glyco-aspartic acid linked to its N-terminal end] | – | – | – | – | – | – | – | – | – | – | – | – | – | – | – | Highest neutralization values | greater neutralization | 90
7 | TKGPSKLNDRADSRR ({Gal‑α1‑3Gal‑β glyco‑aspartic acid}-TKGPSKLNDRADSRR) [Seq. Id. No. 8, CD4 receptor peptide with Gal-α1-3Gal-β glyco-aspartic acid linked to its N-terminal end] | neg (Neg = negative <0.30) | neg (Neg = negative <0.30) | neg (Neg = negative <0.30) | neg (Neg = negative <0.30) | 0.39 | 0.49 | neg (Neg = negative <0.30) | 0.32 | 0.429 | neg (Neg = negative <0.30) | neg (Neg = negative <0.30) | neg (Neg = negative <0.30) | – | – | – | Highest neutralization values | greater neutralization | 90
